The source made the active and inactive calls.
Key:
[1] = target: Eukaryotic translation initiation factor 4E (Mus musculus, UniProt P63073); assay: blockers of eIF4G binding by eIF4E – biochemical, TR-FRET, dose response (AID 855); assay type: functional;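 further: potency for disrupting eIF4E binding to eIF4GI seen as loss of FRET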
[2] = test system: A549; assay: viability loss in A549 cells – cell-based, plate reader, cherry-pick samples, cytotoxicity control, dose response (AID 687028); assay type: functional; details: Homo sapiens
[3] = test system: HEK293; assay: cells; assay type: functional, cell-based; details: Homo sapiens
[4] = A549 cell cytotoxicity, dose response, cytotoxicity control, plate reader, cherry-pick, antagonist series (AID 743412); assay type: functional, cell-based
[5] = general cell-killing toxicity readout – plate reader, dry powder samples, cytotoxicity control for PAX8 inhibitor project, dose response (AID 743021); assay type: functional, cell-based
[6] = target: T1, Protein skinhead-1 (Caenorhabditis elegans, UniProt P34707); assay type: functional
T1 sequence (P34707 whole entry): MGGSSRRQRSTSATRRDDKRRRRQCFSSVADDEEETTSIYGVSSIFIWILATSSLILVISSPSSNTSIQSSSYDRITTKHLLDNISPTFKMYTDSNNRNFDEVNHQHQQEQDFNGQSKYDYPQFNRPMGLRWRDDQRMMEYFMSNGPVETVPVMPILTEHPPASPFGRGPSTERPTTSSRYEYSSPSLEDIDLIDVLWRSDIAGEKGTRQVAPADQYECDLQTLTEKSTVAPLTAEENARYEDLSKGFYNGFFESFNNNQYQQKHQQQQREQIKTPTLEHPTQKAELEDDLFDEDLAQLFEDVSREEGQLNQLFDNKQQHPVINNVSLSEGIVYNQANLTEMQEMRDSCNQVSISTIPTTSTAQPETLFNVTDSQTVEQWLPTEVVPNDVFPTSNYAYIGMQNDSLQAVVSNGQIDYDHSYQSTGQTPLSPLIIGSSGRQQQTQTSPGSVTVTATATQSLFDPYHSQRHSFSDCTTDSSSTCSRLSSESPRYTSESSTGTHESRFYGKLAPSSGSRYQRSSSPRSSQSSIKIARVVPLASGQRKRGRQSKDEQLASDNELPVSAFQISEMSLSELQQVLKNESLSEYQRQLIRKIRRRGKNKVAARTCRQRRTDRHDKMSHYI

[7] = target: T2, Heat shock factor protein 1 (Mus musculus, UniProt P38532); assay: decrease of HSF1-responsive luciferase luminescence – cell-based, NIH3T3, dose retest, confirmation (AID 2382); assay type: functional;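 further: NIH3T3 fibroblasts with HSF1-driven luciferase reporter stressed by proteasome inhibitor MG132; luminescence from HSF1-driven luciferase expression after 8 hours of MG132 stress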
T2 sequence (P38532 whole entry): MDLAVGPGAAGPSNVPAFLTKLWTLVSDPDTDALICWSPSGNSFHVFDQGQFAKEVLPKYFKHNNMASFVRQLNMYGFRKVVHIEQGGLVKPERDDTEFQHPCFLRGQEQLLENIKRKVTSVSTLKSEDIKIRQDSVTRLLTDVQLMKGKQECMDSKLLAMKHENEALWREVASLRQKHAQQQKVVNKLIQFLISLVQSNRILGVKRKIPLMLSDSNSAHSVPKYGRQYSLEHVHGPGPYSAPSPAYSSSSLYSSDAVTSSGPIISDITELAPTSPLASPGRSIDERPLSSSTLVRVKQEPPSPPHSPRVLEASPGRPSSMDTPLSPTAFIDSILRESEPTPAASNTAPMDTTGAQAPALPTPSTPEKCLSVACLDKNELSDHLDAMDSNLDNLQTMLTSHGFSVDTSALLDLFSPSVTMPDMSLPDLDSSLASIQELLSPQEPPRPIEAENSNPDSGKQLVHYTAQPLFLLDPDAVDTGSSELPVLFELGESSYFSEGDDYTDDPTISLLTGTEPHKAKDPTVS

[8] = blockers of bursicon-stimulated LGR2 cAMP reporter – cell-based, HEK293, CRE-luciferase reporter, cherry pick, set 2, dose response (AID 743343); assay type: functional;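 further: transfected cells were stimulated with diluted bursicon conditioned medium after compound addition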
[9] = test system: HEK293; assay: cells; assay type: functional, cell-based; details: Homo sapiens; remark: listed apart in the source
[10] = toxicity toward HepG2 liver cells – cell-based, plate reader, cherry-pick, antagonist series, cytotoxicity control, dose response (AID 743416); assay type: functional
[11] = viability loss in HEK293 cells – cell-based, plate reader, cherry-picked samples, cytotoxicity control, dose response (AID 743446); assay type: functional
[12] = test system: HEK293; assay: cells; assay type: functional, cell-based; details: Homo sapiens; remark: listed apart in the source
[13] = blockade of melanocortin 4 receptor signaling – cell-based, plate reader, cherry pick, counter-screen for LGR2 antagonist project, dose response (AID 743444); assay type: functional;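 further: transfected HEK 293 cells stimulated with alpha-MSH peptide; potency of inhibitors of the alpha-MSH evoked signal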
[14] = target: Paired box protein Pax-8 (Homo sapiens, UniProt Q06710); assay: PAX8 transcriptional activity inhibition in RMG-I – RMG-I cells, luciferase, cherry-pick, dose response (AID 687027); assay type: functional, cell-based;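 further: luciferase reporter driven by Pax8 target thyroperoxidase promoter measured by SteadyGlo luminescence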
[15] = test system: HEK293; assay: inhibition of NOD1-driven NF-kB reporter – cell-based, luminescence, uHTS, primary screen (AID 1578); assay type: functional; details: Homo sapiens
[16] = target: Nucleotide-binding oligomerization domain-containing protein 2 (Homo sapiens, UniProt Q9HC29); assay: inhibition of NOD2-driven NF-kB reporter – cell-based, luminescence, uHTS, HEK293 (AID 1566); assay type: functional
[17] = test system: HEK293; assay: NOD2 signaling inhibitors in MDP-stimulated cells, cell-based, uHTS, luminescence (AID 2001); assay type: functional; details: Homo sapiens
[18] = cells
[19] = target: Major prion protein (Homo sapiens, UniProt P04156); assay type: functional, cell-based
[20] = target: Long-chain-fatty-acid--AMP ligase FadD28 (Mycobacterium tuberculosis, UniProt P9WQ59); assay: Fluorescence polarization aasay to screen for inhibitors that compete for the binding of FadD28 to a bisubstrate Measured in Biochemical System Using Plate Reader - 2147-01_Inhibitor_Dose_CherryPick_Activity.; assay type: functional, Mycobacterium tuberculosis H37Rv
[21] = cells; remark: listed apart in the source
[22] = target: Fructose-bisphosphate aldolase (Mycobacterium tuberculosis, UniProt P9WQA3); assay: Fluorescence-based biochemical high throughput dose response assay for inhibitors of the fructose-bisphosphate aldolase (FBA) of M. tuberculosis.; assay type: functional
[23] = target: T3, Methionyl-tRNA synthetase, putative (Trypanosoma brucei brucei, UniProt Q38C91); assay type: functional, Trypanosoma brucei brucei strain 927/4 GUTat10.1
T3 sequence (Q38C91 whole entry): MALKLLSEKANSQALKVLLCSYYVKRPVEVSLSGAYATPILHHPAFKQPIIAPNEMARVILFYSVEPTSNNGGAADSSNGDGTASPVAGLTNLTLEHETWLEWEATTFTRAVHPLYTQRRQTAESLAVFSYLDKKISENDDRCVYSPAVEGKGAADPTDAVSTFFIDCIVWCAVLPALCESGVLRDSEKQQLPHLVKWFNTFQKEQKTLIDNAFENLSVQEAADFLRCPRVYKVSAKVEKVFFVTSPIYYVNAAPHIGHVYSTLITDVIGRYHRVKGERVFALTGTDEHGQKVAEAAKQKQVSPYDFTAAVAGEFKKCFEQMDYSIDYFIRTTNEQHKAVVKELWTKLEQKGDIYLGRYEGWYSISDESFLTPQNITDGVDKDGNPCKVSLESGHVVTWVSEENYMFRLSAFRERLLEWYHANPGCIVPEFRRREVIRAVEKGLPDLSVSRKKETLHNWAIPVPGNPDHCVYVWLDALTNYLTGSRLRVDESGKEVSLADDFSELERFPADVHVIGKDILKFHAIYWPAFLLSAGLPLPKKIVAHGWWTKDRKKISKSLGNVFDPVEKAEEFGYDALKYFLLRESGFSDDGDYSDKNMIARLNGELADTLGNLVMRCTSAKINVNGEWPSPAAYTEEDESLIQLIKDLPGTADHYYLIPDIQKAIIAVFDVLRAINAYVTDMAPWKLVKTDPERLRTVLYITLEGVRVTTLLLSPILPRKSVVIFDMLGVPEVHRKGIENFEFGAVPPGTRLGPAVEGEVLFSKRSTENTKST

[24] = Counterscreen for inhibitors of Trypanosoma brucei methionyl tRNA synthetase (MetRS): Luminescence-based cell-based high throughput dose response assay to identify compounds that are cytotoxic to Jurkat human T lymphocyte cells.; assay type: functional
[25] = target: T3, Methionyl-tRNA synthetase, putative; assay type: functional, Trypanosoma brucei brucei strain 927/4 GUTat10.1; remark: listed apart in the source
[26] = Luminescence Cell-Based Dose Confirmation HTS to Identify Inhibitors of Platelet Dense Granule Release. [Related pubchem assays: 1663 (Primary HTS), 1678 (Summary of Project)]; assay type: functional
[27] = target: Luciferin 4-monooxygenase (Photinus pyralis, UniProt P08659); assay: inhibition of purified Photinus pyralis luciferase – biochemical, luminescence, dose response (AID 1891)
[28] = target: T4, Oxysterols receptor LXR-beta (Homo sapiens, UniProt P55055); assay type: functional, cell-based;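 further: agonist activity at LXR measured by a cell-based luminescence readout across a dose range, run as a counterscreen for daf-12 agonists; HEK293 cells with Gal4-LXR fusion and GAL4-driven luciferase reporter; potency for activation of Gal4-LXR reporter so compounds are agonists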
T4 sequence (P55055 whole entry): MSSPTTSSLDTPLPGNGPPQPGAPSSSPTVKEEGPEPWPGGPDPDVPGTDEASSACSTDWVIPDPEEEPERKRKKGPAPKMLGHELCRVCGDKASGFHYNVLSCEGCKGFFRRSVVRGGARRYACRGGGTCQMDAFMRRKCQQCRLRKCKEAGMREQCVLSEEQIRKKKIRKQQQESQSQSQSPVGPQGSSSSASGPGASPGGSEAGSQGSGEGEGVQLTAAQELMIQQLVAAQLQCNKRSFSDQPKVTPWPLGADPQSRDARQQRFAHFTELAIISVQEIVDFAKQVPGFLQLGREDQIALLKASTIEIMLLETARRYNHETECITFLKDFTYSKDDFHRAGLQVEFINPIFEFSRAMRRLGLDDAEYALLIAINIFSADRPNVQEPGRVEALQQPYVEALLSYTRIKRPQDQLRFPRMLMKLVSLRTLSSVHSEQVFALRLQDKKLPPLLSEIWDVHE

[29] = cytotoxicity in HEK293 background cells – cell-based, dry powder, set 2, counter-screen for EBV LMP1 inhibitor project, dose response (AID 624374); assay type: functional
[30] = target: T5, Rac GTPase-activating protein 1 (Homo sapiens, UniProt Q9H0H5); assay: blockers of MgcRacGAP-driven Rac1 GTP hydrolysis – biochemical, ADP Hunter fluorescence, primary and confirmatory, confirmation (AID 624330); assay type: functional
T5 sequence (Q9H0H5 whole entry): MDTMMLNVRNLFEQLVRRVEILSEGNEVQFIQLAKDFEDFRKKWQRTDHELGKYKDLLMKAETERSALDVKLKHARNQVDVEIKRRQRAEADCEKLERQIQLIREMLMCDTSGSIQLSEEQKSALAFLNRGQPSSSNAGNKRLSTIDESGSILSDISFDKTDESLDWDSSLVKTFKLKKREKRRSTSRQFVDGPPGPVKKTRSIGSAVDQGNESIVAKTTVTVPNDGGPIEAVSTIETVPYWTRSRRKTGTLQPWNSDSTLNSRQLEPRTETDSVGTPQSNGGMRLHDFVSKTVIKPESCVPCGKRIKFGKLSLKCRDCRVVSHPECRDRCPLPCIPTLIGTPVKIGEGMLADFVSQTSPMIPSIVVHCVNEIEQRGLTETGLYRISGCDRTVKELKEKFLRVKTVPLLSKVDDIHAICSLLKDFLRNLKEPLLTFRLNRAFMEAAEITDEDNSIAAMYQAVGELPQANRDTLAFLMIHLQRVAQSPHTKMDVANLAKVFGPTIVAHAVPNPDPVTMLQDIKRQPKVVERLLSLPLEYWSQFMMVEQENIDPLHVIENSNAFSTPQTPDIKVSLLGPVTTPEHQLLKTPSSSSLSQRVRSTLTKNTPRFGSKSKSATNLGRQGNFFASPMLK

[31] = viability loss in HeLa cells – cytotoxicity control for MgcRacGAP inhibitor project, dose response (AID 624300); assay type: functional

## COc1ccc(OC)c(S(=O)(=O)N2CCN(c3c(C)cccc3C)CC2)c1
[1]
  IC50: > 64 µM (inactive)
[2]
  AC50: 20.8 µM (active)

## CC(C)c1ccc(-c2nc3ccccc3s2)cc1
[3]
  IC50: > 20 µM (inactive)
[4]
  AC50: 22.8 µM (active)
[5]
  AC50: 7.87 µM (active)
[6]
  IC50: 75.6 µM (inactive)
[7]
  EC50: < 0.16 µM (active)
[8]
  AC50: 0.133 µM (active)
[9]
  IC50: > 20 µM (inactive)
[10]
  AC50: > 52 µM (inactive)
[11]
  AC50: 34 µM (active)
[12]
  IC50: 0.478 µM (active)
[13]
  AC50: < 0.068 µM (active)
[14]
  AC50: 5.31 µM (active)
[15]
  EC50: 4.67 µM (active)
[16]
  EC50: 0.02 µM (active)
[17]
  IC50: 3.21 µM (active)

## COc1ccc(NC(=O)CCSc2ccc3ccccc3n2)cc1
[18]
  IC50: > 138 µM (inactive)
[19]
  IC50: 4.52 µM (active)

## COc1cc(C(S)=NCc2ccccc2)cc(Br)c1O
[20]
  AC50: 53.6 µM (active)

## COc1cccc2c(=O)c3c(cnn3C)n(C)c12
[21]
  AC50: 2.16 µM (active)

## Cc1cc(OCC(=O)NCCc2ccc(S(N)(=O)=O)cc2)c2c(C)c(C)c(=O)oc2c1
[22]
  IC50: 1.1 µM (active)

## COc1ccc(CCN2C(=S)N(C)C(=O)C2CC(=O)Nc2ccc(F)cc2)cc1 (stereo unspecified)
[23]
  IC50: 2.69 µM (active)
[24]
  IC50: 32.7 µM (inactive)
[25]
  IC50: 6.54 µM (active)

## Cc1csc(NC(=O)c2cn3ccccc3n2)n1
[4]
  AC50: > 52 µM (inactive)
[8]
  AC50: 2.16 µM (active)
[26]
  EC50: 4.85 µM (active)
[27]
  EC50: 8.32 µM (active)
[10]
  AC50: > 52 µM (inactive)
[11]
  AC50: 47.2 µM (active)
[13]
  AC50: 1.92 µM (active)

## CCOC(=O)c1ccc(NC(S)=NNC(=O)C2(C)CC2(Cl)Cl)cc1 (stereo unspecified)
[20]
  AC50: 13.8 µM (active)

## CCN1C(=O)C(CC(=O)Nc2ccc(OC)cc2)N(CCc2ccc(OC)cc2)C1=S (stereo unspecified)
[23]
  IC50: 5.11 µM (active)
[24]
  IC50: 52.4 µM (inactive)
[25]
  IC50: 13.1 µM (inactive)

## O=C(CC(=O)c1cccs1)c1ccncc1
[28]
  EC50: > 67.5 µM (inactive)

## CN(C)/C=N/C(=S)Nc1ccc(Cl)cc1
[28]
  EC50: > 67.5 µM (inactive)

## Cc1noc(C)c1S(=O)(=O)Nc1ccc2c(c1)C(=O)N([C@@H](C)CO)C[C@@H](C)[C@H](CN(C)Cc1ccc(C(F)(F)F)cc1)OCCCC[C@H](C)O2
[29]
  AbsAC35: 151.31 µM

## Cc1c(O)ccc(/C(Cc2ccc3ccccc3n2)=N\O)c1O
[30]
  IC50: 62.1 µM (active)
[31]
  CC50: 100 µM (active)
